The target in this assay is neuronal nicotinic cholinergic channel receptors. The assay can be described thus: [3H]-cytisine displacement binding to neuronal nicotinic cholinergic channel receptors. The class given is rat (crude synaptic membranes from whole rat brain). The note with it: read-out: Receptor Binding Ki. The method, then: B. Protocol For Determination of Nicotinic Cholinergic Channel Receptor Binding Potencies of Ligands
Binding of [^3 H]-cytisine ([^3 H]-CYT) to nicotinic receptors was accomplished using crude synaptic membrane preparations from whole rat brain (Pabreza et al., Molecular Pharmaol., 1990, 39:9). Washed membranes were stored at -80° C. prior to use. Frozen aliquots were slowly thawed and resuspended in 20 volumes of buffer (containing: 120 mM NaCl, 5 mM KCl, 2 mM MgCl2, 2 mM CaCl2 and 50 mM Tris-Cl, pH 7.4 @4° C.). After centrifuging at 20,000×g for 15 minutes, the pellets were resuspended in 30 volumes of buffer. Homogenate (containing […]) was added to triplicate tubes containing concentrations of test compound and [^3 H]-CYT (1.25 nM) in a final volume of 500 μL. Samples were incubated for 60 minutes at 4° C., then rapidly filtered through Whatman GF/B filters presoaked in 0.5% polyethylimine using 3×4 mL of ice-cold buffer. The filters are counted in 4 mL of Ecolume® (ICN). […] Alternately, data were expressed as a percentage of the total specific binding.

Setting [1] is: Table 2, [3H]-cytisine 1.25 nM, 60 min at 4° C.

Drawing on US5948793A, “3-pyridyloxymethyl heterocyclic ether compounds useful in controlling neurotransmitter release” (Abbott Laboratories, priority 1995, dated 1999), this text covers Ki for 46 compounds.

Structures can show the parent of a compound that is named as a salt. Where two headings read alike, the source gives them in different places.

As usually defined, the Ki is a measure of affinity in units of concentration, obtained from inhibition or displacement. Turning to `C=CCN1CCC[C@H]1COc1cncc(Br)c1` [Example 57, 3-((1-allyl-2-(S)-pyrrolidinyl)methoxy)-5-bromopyridine dihydrochloride], the Ki under setting [1] turned out to be 17 nM.

Consider `CN1CC[C@H]1COc1cncc(Cl)c1` [Example 80, 5-chloro-3-((1-methyl-2-(S)-azetidinyl)methoxy)pyridine dihydrochloride], for which the Ki under setting [1] was 1.9 nM.

As to `CC[C@@H]1C[C@@H](COc2cccnc2)N(C)C1` [Example 25, 3-((trans-1-methyl-4-ethyl-2(S)-pyrrolidinyl)methoxy)pyridine dihydrochloride], the Ki was 14.7 nM.

As to `Clc1cncc(OC[C@@H]2CCN2)c1` [Example 39, 5-chloro-3-(2-(S)-azetidinylmethoxy)pyridine dihydrochloride], under setting [1], the inhibition constant (Ki) amounted to 0.04 nM.

With `CCCc1cncc(OC[C@@H]2CCCN2C)c1` [Example 77, 5-n-propyl-3-((1-methyl-2-(S)-pyrrolidinyl)methoxy)pyridine dihydrochloride], the Ki under setting [1] was determined as 0.1 nM.

For `CN1C[C@@H](CO)C[C@H]1COc1cccnc1` [Example 48, 3-((cis-4-hydroxymethyl-1-methyl-2-(S)-pyrrolidinyl)methoxy)pyridine dihydrochloride], under setting [1], the Ki turned out to be 30 nM.

For the compound `CN1CCC[C@H]1COc1ccc(CO)nc1` [Example 88, 6-hydroxymethyl-3-((1-methyl-2-(S)-pyrrolidinyl)methoxy)pyridine dihydrochloride], the Ki under setting [1] worked out at 10.4 nM.

Regarding `Brc1ccncc1OC[C@@H]1CCCN1` [Example 20, 4-bromo-3-(2-(S)-pyrrolidinylmethoxy)pyridine dihydrochloride], the inhibitory constant (Ki) came to 341 nM.

Consider `Clc1ccc(OC[C@@H]2CCCN2)cn1` [Example 45, 3-(2-(S)-pyrrolidinylmethoxy)-6-chloropyridine dihydrochloride], for which the Ki under setting [1] worked out at 0.075 nM.

With `CN1CCCCC1COc1cccnc1` (stereo not shown) [Example 26, 3-((1-methyl-2-piperidinyl)methoxy)pyridine oxalate salt], the Ki stood at 76 nM.

For the compound `CN1CCC[C@H]1COc1cncc(N)c1` [Example 94, 5-Amino-3-(1-methyl-2(S)-pyrrolidinylmethoxy)pyridine hydrochloride], the inhibition constant Ki under setting [1] is 0.5 nM.

In the case of `CN1CCC[C@H]1COc1cccnn1` [Example 79, 3-((1-methyl-2-(S)-pyrroidinyl)methoxy)pyridazine dihydrochloride], the Ki under setting [1] turned out to be 42.8 nM.

On to `CCCCc1cncc(OC[C@@H]2CCCN2C)c1` [Example 71, 5-n-butyl-3-((1-methyl-2-(S)-pyrrolidinyl)methoxy)pyridine dihydrochloride], for which the inhibition constant Ki under setting [1] was determined as 0.1 nM.

Turning to `CN1CC[C@H]1COc1ccc(Cl)nn1` [Example 13, 6-chloro-3-((1-methyl-2(S)-azetidinyl)methoxy)pyridazine oxalate], the Ki turned out to be 65 nM.

As to `Cc1ccncc1OC[C@@H]1CCN1` [Example 64, 4methyl-3-(2-(S)-azetidinylmethoxy)pyridine dihydrochloride], under setting [1], the inhibitory constant (Ki) came to 224 nM.

Consider `C[C@@H]1CC[C@@H](COc2cccnc2)N1C` [Example 89, 3-((trans-1,5-dimethyl-2-(S)-pyrrolidinyl)methoxy)pyridine hydrochloride], for which the Ki under setting [1] worked out at 91.2 nM.

Consider `CN1CCC[C@H]1COc1cncc([N+](=O)[O-])c1` [Example 108, 5-Nitro-3-(1-methyl-2(S)-pyrrolidinylmethoxy)pyridine hydrochloride], for which the Ki under setting [1] is 4.9 nM.

`CN1CCC[C@@H]1COc1cncc(Br)c1` [Example 56, 5-bromo-3-((1-methyl-2-(R)-pyrrolidinyl)methoxy)pyridine hydrochloride]: the inhibition constant Ki under setting [1] worked out at 9.2 nM.

For the compound `CN1CCC[C@H]1COc1ccc(Cl)nn1` [Example 12, 3-((1-methyl-2-(S)-pyrrolidinyl)methoxy-6-chloropyridazine fumarate], the Ki turned out to be 29 nM.

In the case of `c1cncc(OCC[C@@H]2CCCN2)c1` [Example 102, 3-(2-(2-(S)-pyrrolidinyl)ethoxy)pyridine dihydrochloride], the inhibition constant Ki under setting [1] came to 34.9 nM.

`CN1C[C@@H](CF)C[C@H]1COc1cccnc1` [Example 92, 3-((cis-4-fluoromethyl-1-methyl-2-(S)-pyrrolidinyl)methoxy)pyridine dihydrochloride]: the inhibition constant Ki under setting [1] worked out at 141 nM.

For the compound `CN1C[C@H](O)C[C@H]1COc1cccnc1` [Example 23, 3-((trans-1-methyl-4-hydroxy-2(S)-pyrrolidinyl)methoxy)pyridine dihydrochloride], the inhibitory constant (Ki) turned out to be 78.3 nM.

For the compound `CN1CC[C@H]1COc1ccc(Cl)nc1` [Example 86, 3-((1-methyl-2-(S)-azetidinyl)methoxy)-6-chloropyridine hydrochloride], the Ki under setting [1] was determined as 1.43 nM.

On to `Cc1ncccc1OC[C@@H]1CCN1` [Example 29, 2-methyl-3-(2-(S)-azetidinylmethoxy)pyridine dihydrochloride], for which the inhibition constant Ki was 1.3 nM.

Consider `c1cnc(OC[C@@H]2CCN2)cn1` [Example 7, 2-(2-(S)-azetidinylmethoxy)pyrazine dihydrochloride], for which the Ki under setting [1] turned out to be 0.44 nM.

As to `Brc1cncc(OC[C@@H]2CCCN2)c1` [Example 65, 5-bromo-3-(2-(S)-pyrrolidinylmethoxy)pyridine dihydrochloride], under setting [1], the Ki worked out at 0.6 nM.

With `c1cncc(OC[C@H]2CCN2)c1` [Example 62, 3-(2-(R)-azetidinylmethoxy)pyridine dihydrochloride], under setting [1], the Ki is 0.5 nM.

In the case of `Cc1ccc(OC[C@@H]2CCN2)cn1` [Example 40, 6-methyl-3-(2(S)-azetidinylmethoxy)pyridine dihydrochloride], the Ki under setting [1] stood at 0.05 nM.

For the compound `CN1C[C@H](OS(C)(=O)=O)C[C@H]1COc1cccnc1` [Example 87, 3-((trans-4-methanesulfonyloxy-1-methyl-2(S)-pyrrolidinyl)methoxy)pyridine dihydrochloride], the Ki under setting [1] amounted to 0.11 nM.

On to `c1cncc(OC[C@H]2CCCN2)c1` [Example 2, 3-(2-(R)-pyrrolidinylmethoxy)pyridine dihydrochloride], for which the Ki came out at 0.17 nM.

For the compound `CN1CCC[C@H]1COc1cnccc1Br` [Example 21, 4-bromo-3-((1-methyl-2-(S)-pyrrolidinyl)methoxy)pyridine dihydrochloride], the inhibitory constant (Ki) is 23 nM.

Turning to `Clc1ccc(OC[C@H]2CCCN2)cn1` [Example 58, 3-(2-(R)-pyrrolidinylmethoxy)-6-chloropridine hydrochloride], under setting [1], the Ki was 5.3 nM.

Turning to `Cc1ccncc1OC[C@@H]1CCCN1` [Example 27, 4-methyl-3-(2-(S)-pyrrolidinylmethoxy)pyridine dihydrochloride], the Ki was found to be 5.8 nM.

Regarding `CN1C[C@H](CO)C[C@H]1COc1cccnc1` [Example 83, 3-((trans-4-hydroxymethyl-1-methyl-2-(S)-pyrrolidinyl)methoxy)pyridine dihydrochloride], the Ki under setting [1] turned out to be 73.1 nM.

Consider `COCC1C[C@@H](COc2cccnc2)N(C)C1` (stereo partly drawn) [Example 49, 3-((4-methoxymethyl-1-methyl-2-(S)-pyrrolidinyl)methoxy)pyridine dihydrochloride], for which the Ki under setting [1] turned out to be 66 nM.

Turning to `CN1CCC[C@H]1CCOc1cccnc1` [Example 103, 3-(2-(1-methyl-2-(S)-pyrrolidinyl)ethoxy)pyridine dihydrochloride], the Ki under setting [1] was 18.4 nM.

As for `CN1CCC[C@@H]1COc1cncc(C(F)(F)F)c1` [Example 54, 3-((1-methyl-2-(R)-pyrrolidinyl)methoxy)-5-trifluoromethylpyridine hydrochloride], under setting [1], the Ki came to 78 nM.

Take `CN1CCC[C@H]1COc1nccs1` [Example 11, 2-((1-methyl-2-(S)-pyrrolidinyl)methoxy)thiazole hydrochloride]: under setting [1], the Ki was 110 nM.

With `Cc1ncccc1OC[C@H]1CCN1` [Example 81, 2-methyl-3-(2-(R)-azetidinylmethoxy)pyridine dihydrochloride], for the setting “Table 2, [3H]-cytisine 1.25 nM, 60 min at 4° C., dihydrochloride”, the inhibition constant Ki turned out to be 9.3 nM.

As to `Clc1cc(OC[C@@H]2CCN2)cnc1Cl` [Example 109, 5,6-Dichloro-3-(2-(S)-azetidinylmethoxy)pyridine hydrochloride], under setting [1], the inhibition constant (Ki) is 0.024 nM.

Turning to `CN1CC[C@H]1COc1cncc(Br)c1` [Example 68, 3-((1-methyl-2-(S)-azetidinyl)methoxy)-5-bromopyridine dihydrochloride], the Ki under setting [1] stood at 4.5 nM.

Turning to `CN1CC[C@H]1COc1cnc(Cl)c(Cl)c1` [Example 110, 5,6-Dichloro-3-(1-methyl-2-(S)-azetidinylmethoxy)pyridine hydrochloride], the inhibitory constant (Ki) under setting [1] is 0.75 nM.

On to `c1ccc2ncc(OC[C@H]3CCCN3)cc2c1` [Example 76, 3-(2-(R)-pyrrolidinylmethoxy)quinoline dihydrochloride], for which the inhibitory constant (Ki) under setting [1] was determined as 12.8 nM.

Consider `CN1CCC[C@H]1COc1cncnc1` [Example 84, 5-(1-methyl-2-(S)-pyrrolidinylmethoxy)pyrimidine dihydrochloride], for which the Ki under setting [1] came to 2.41 nM.

As to `CN1C[C@@H](C#N)C[C@H]1COc1cccnc1` [Example 90, 3-((cis-4-cyano-1-methyl-2(S)-pyrrolidinyl)methoxy)pyridine dihydrochloride], the Ki under setting [1] was 18.4 nM.

For the compound `CN1CCC[C@H]1COc1cncc(Br)c1` [Example 28, 5-bromo-3-((1-methyl-2-(S)-pyrrolidinyl)methoxy)pyridine dihydrochloride], the Ki is 0.23 nM.
